# From patent US20200370102A1, “BIOMARKER INDICATING RESPONSE TO POZIOTINIB THERAPY FOR CANCER” (HANMI PHARM. CO., LTD., priority 2017, published 2020)
# Experiments:
# [1] = test system: cancer cells having overexpression of Her1 or Her2 or activated mutations; details: in vitro, various carcinomas; cited from earlier work
# [2] = test system: lung cancer cells resistant to gefitinib or erlotinib; details: cited from earlier work
# [3] = test system: EGFR family including Her1, Her2, and Her4; details: cited from earlier work
# [4] = test system: HER2-positive metastatic breast cancer; experiment: open-label, multicenter study of poziotinib monotherapy in breast cancer patients, with genotype (NGS) analysis; assay type: in vivo, human
# Procedure: Poziotinib is a pan-HER inhibitor small molecule breast cancer therapeutic agent under clinical development. […] Recently, through an open-label, multicenter, two-phase study of poziotinib monotherapy, it was evaluated whether poziotinib was an option for breast cancer patients with HER2-positive metastatic breast cancer who twice or more experienced the failure of 2 HER2 target treatments. The genetic profile of HER2-positive metastatic breast cancer was evaluated, and the potential biomarkers of poziotinib for HER2-positive metastatic breast cancer (MBC) were investigated.
# The experimental method is as follows. All participants with MBC were diagnosed with HER2-positive metastatic breast cancer according to the American Society of Clinical Oncology/College of-American Pathologist Her2 guideline. Fresh tissue samples or FFPE samples were obtained from these patients and used to extract DNA and RNA for next generation sequencing (NGS).
# DNA and RNA were extracted from the samples and NGS was performed thereon. Targeted deep sequencing was performed by using a customized 381 cancer gene panel (CancerSCAN™, Samsung Hospital, Inc.) and the correlation among sequencing data, immunohistochemistry, and clinical outcome was analyzed.
# An effective amount of poziotinib was administered to the breast cancer patients. The prognosis of the patients was observed. Prognosis was classified into partial remission (PR), stable disease (SD), and progressive disease (PD). For each patient, progressive free survival (PFS) was also identified.
# From April 2015 to February 2016, 106 patients enrolled for clinical trials. Biomarker data were available for 75 of these patients.
# [5] = test system: transplanted tumor cells; details: xenotransplantation animal model; cited from earlier work
# [6] = among the 75 patients with biomarker data
smiles,measurement,setting,value
"C=CC(=O)N1CCC(Oc2cc3c(Nc4ccc(Cl)c(Cl)c4F)ncnc3cc2OC)CC1 [Poziotinib, 1-[4-[4-(3,4-dichloro-2-fluoroanilino)-7-methoxyquinazolin-6-yl]oxypiperidin-1-yl]prop-2-en-1-one]",growth of cancer cells,[1],inhibits the growth of cancer cells
same,growth of lung cancer cells,[2],effectively inhibits the growth
same,inhibition of the EGFR family,[3],selectively and irreversibly inhibits
same,prognosis after poziotinib by genotype,[4]; BARD1 gene mutation present (mutation number=9),poor prognosis
same,prognosis after poziotinib by genotype,[4]; CDK12 copy number amplification (42 subjects),good prognosis
same,prognosis after poziotinib by genotype,[4]; ERBB3 gene mutation present (mutation number=10),poor prognosis
same,prognosis after poziotinib by genotype,[4]; NOTCH gene mutation present (mutation number=13),good prognosis
same,prognosis after poziotinib by genotype,[4]; PIK3CA gene mutation present (mutation number=34),poor prognosis
same,prognosis after poziotinib by genotype,[4]; SETBP1 gene mutation present (mutation number=13),poor prognosis
same,prognosis after poziotinib by genotype,[4]; SH2B3 gene mutation present (mutation number=6),good prognosis
same,number of patients with partial remission (PR),[4]; [6],14
same,number of patients with progressive disease (PD),[4]; [6],20
same,prognosis after poziotinib by genotype,[4]; copy number amplification of the ERBB2 gene,good prognosis
same,prognosis after poziotinib by genotype,[4]; copy number deletion of the BRCA1 gene,bad prognosis
same,prognosis after poziotinib by genotype,[4]; copy number deletion of the STAT3 gene,bad prognosis
same,prognosis after poziotinib by genotype,[4]; deletion or amplification of the FGFR3 gene (copy number variations=5),bad prognosis
same,prognosis of patients with ERBB2 gene or upstream mutations,"[4]; patients 1 to 10 of the 13 patients with ERBB2 mutations, FIG. 13",partial remission and stable disease
same,tumor growth,[5],effectively blocks tumor growth
